Converted amounts (≈) assume the structure as drawn. “Also recorded” adds a separate entry of the source.
Experiments:
[1] = tested on: Mtb strains; test: MIC, summary statement for Mtb strains; assay type: cell-based; settings: Mycobacterium tuberculosis
[2] = tested on: M. tuberculosis 49975; test: microbe, parasite or virus in culture; assay type: cell-based; settings: Mycobacterium tuberculosis
[3] = tested on: M. tuberculosis 43061; test: microbe, parasite or virus in culture; assay type: cell-based; settings: Mycobacterium tuberculosis
[4] = tested on: M. tuberculosis MI1020; test: microbe, parasite or virus in culture; assay type: cell-based; settings: Mycobacterium tuberculosis
[5] = tested on: M. tuberculosis 59744; test: microbe, parasite or virus in culture; assay type: cell-based; settings: Mycobacterium tuberculosis
[6] = tested on: Mtb-T313A; assay type: cell-based, Mycobacterium tuberculosis
[7] = tested on: M. tuberculosis MB3649; test: microbe, parasite or virus in culture; assay type: cell-based; settings: Mycobacterium tuberculosis
[8] = tested on: M. tuberculosis 45776; test: microbe, parasite or virus in culture; assay type: cell-based; settings: Mycobacterium tuberculosis
[9] = tested on: Mtb spontaneous-resistant mutants 1 to 3 / rMtb-L176P; assay type: cell-based, Mycobacterium tuberculosis
[10] = tested on: drug resistant isolates; test: microbe, parasite or virus in culture; assay type: cell-based, M. tuberculosis; settings: Mycobacterium tuberculosis

Cc1c(OCC(F)(F)F)ccnc1CSc1nc2ccccc2[nH]1 [LPZS, Lanzoprazole sulfide]
MIC [1]: < 2 µM
MIC [2]: 1.06 µM (≈ 0.375 µg/mL)
MIC [3]: 0.49 µM (≈ 0.173 µg/mL)
MIC [4]: 0.94 µM (≈ 0.332 µg/mL)
MIC [5]: 0.78 µM (≈ 0.276 µg/mL)
activity against T313A mutant [6]: active; also recorded: does not confer high level resistance
MIC [7]: 1.37 µM (≈ 0.484 µg/mL)
MIC [8]: 0.52 µM (≈ 0.184 µg/mL)
resistance of mutants against compound [9]: stable phenotypic resistance
MIC [10]: < 2 µM

CCc1nc2ccc(Cl)cn2c1C(=O)NCc1ccc(N2CCC(c3ccc(OC(F)(F)F)cc3)CC2)cc1 [Q203, reference compound]
activity against T313A mutant [6]: resistant; also recorded: high level resistance

— patent publication US10137116B2, “Benzimidazole sulfide derivatives for the treatment or prevention of tuberculosis” (priority 2015, dated 2018)
